Reference: patent US20250090555A1, “METHOD FOR PRODUCING A CBD […] OR SOLID AND USE THEREOF” (Food4Innovations Ventures B.V., priority 2022, published 2025)

Legend:
Type in all cases: physicochemical
[1] = Observation of physical stability: viscosity, phase separation, storage / shelf life; details: before or after homogenization or on storage
Source text: • 1. Before starting the experiment, the most optimal solubilizing phase of the emulsifier (organic or in aqueous phase) may be investigated. This could influence the droplet size and is different for every emulsifier (the movement of the emulsifier from the oil phase into the aqueous phase may be important in the formation of nano emulsions by this method). • 2. Prepare a pre-emulsion comprising the emulsifier in water or oil phase in order to fully dissolve the emulsifier. When mixing the emulsifier into the solubilizing phase, an Ultra turrax is used at 10000 rpm (stand 37) for 3 minutes. If needed, the emulsifier and solubilized phase could be heated prior to mixing. • 3. Mix the pre-emulsion by slowly adding the oil phase to the aqueous phase while mixing with an Ultra turrax at 12000 rpm (stand 40) for 5 min). • 4. Let the pre-emulsion mixture rest for 1 hour. • 5. Homogenize the emulsion with a homogenizer preferably between 300-1200 bar, and between 3 and 5 passes. • 6. Collect the sample and measure the temperature directly. • 7. Allow it to cool completely before measuring the turbidity. • 8. The concentrated emulsion may especially be made into a ready-to-drink clear beverage by diluting it with water. Therefore, dilute a small amount of the obtained concentrated emulsion from step 6 with water to observe the clarity and turbidity of the final product. […]

[2] = Observation of foam formation of the emulsion / diluted beverage
[3] = Turbidity of the emulsion before and after dilution with water, by turbidity meter; details: dilution factor not printed at the place
Method: A stable, optically clear, beverage is desirably obtained. Homogenization is carried out with a pressure of between 300 bar and 1500 bar, preferably about 800 bar. The homogenization pressure may be applied for between 1 and 5 passes. The ratio of emulsifier to carrier oil in the emulsion may be containing an excess amount of emulsifier in oil, which could be used to make an optically clear beverage. An optimal concentration of between 0 and 3 times more emulsifier in contrast to the oil phase will be tested. Cloudy beverages have a high turbidity, e.g., between 200 and 300 NTU, or even as high as 2,000 NTU. The aim is to develop a beverage with a turbidity<15 NTU. After production of the treatments, the turbidity will therefore be measured by a turbidity meter.
• 1. Before starting the experiment, the most optimal solubilizing phase of the emulsifier (organic or in aqueous phase) may be investigated. This could influence the droplet size and is different for every emulsifier (the movement of the emulsifier from the oil phase into the aqueous phase may be important in the formation of nano emulsions by this method). • 2. Prepare a pre-emulsion comprising the emulsifier in water or oil phase in order to fully dissolve the emulsifier. […] The concentrated emulsion may especially be made into a ready-to-drink clear beverage by diluting it with water. […]

Substance: Sucrose monostearate
- Viscosity / phase separation / storage behaviour [1]: became extremely viscous after a couple days of storage
- Foam formation [2]: no foam formation
- Turbidity [3]: > 15 NTU
